{"source": "paper PMC10721329", "about": "“Quisinostat is a brain-penetrant radiosensitizer in glioblastoma” (JCI Insight, 2023)", "test": "Plasma pharmacokinetics by route of administration (IP, SC, OG)", "assay_type": "in vivo, athymic nude mice", "conditions": "for AUC(0-t): athymic nude (Foxn1nu), single dose 10 mg/kg, athymic nude mice, read-out: AUClast (plasma)", "description": "Because the efficacy of QST in preclinical models of brain tumors remains controversial, and because previous studies employed various drug delivery methods, we sought to understand how different routes of administration affect the bioavailability of QST in mice. Three routes of administration were compared to determine the optimal dosing route to obtain the highest plasma exposure to QST over time. We treated athymic nude mice with a single dose of QST (10 mg/kg) through intraperitoneal (IP), subcutaneous (SC), or oral gavage (OG) delivery and collected blood at 0.5, 1, 2, 4, 6, 8, and 24 hours after dosing from individual mice for PK analysis (Figure 5A). […] Therefore, IP delivery was the optimal route of administration to maximize the bioavailability of QST in athymic nude mice.\nQST concentrations in specimens were measured using reverse-phase LC on the AB SCIEX QTRAP6500+ LC-MS/MS system by operating electrospray in the positive ion mode. For liquid chromatographic separation, gradient elution was performed using a Phenomenex Kinetex F5 100 Å column (100 × 2.1 mm, 2.6 μm). The initial composition of the mobile phase was 70% phase A (0.1% formic acid in water) and 30% phase B (0.1% formic acid in 1:1 acetonitrile/methanol) with a 0.35 mL/min flow rate. Gradient elution was achieved as follows: mobile phase (B) was maintained at 30% from 0 to 0.3 minutes, increased to 95% from 0.3 to 0.8 minutes, maintained at 95% from 0.8 to 2.5 minutes, and decreased to 30% from 2.5 to 2.8 minutes. The total run time was 3.5 minutes. The internal standard used in this study was D8-infigratinib. The retention times for QST and D8-infigratinib were 1.6 and 1.8 minutes, respectively. Mass-to-charge ratio transitions were as follows: 395.20 → 144.00 (QST) and 568.08 → 321.00 (D8-infigratinib). LC-MS/MS analysis was performed using an Analyst 1.7 Chromatographic Data System. See Supplemental Methods for detailed PK experiments. […]\nPreparation of QST for In Vivo Use\nFor in vivo preparation, QST was dissolved in 50% polyethylene glycol (PEG) 300, 50% sterile water solution for 10 mg/kg dosing. The suspension was then sonicated for 10 minutes to allow the drug to completely dissolve. Finally, the pH of both the drug and the vehicle solutions was adjusted to 7.4 before intraperitoneal dosing.\nDetermination of Optimal Administration Route\nFoxn1nu nude male mice (The Jackson Laboratory) were used to determine the drug administration route that would result in the best QST bioavailability. Three cohorts of mice were treated with a single dose of 10 mg/kg QST delivered through intraperitoneal, subcutaneous, or oral gavage routes (3 mice per cohort). Following administration of the single dose, approximately 30 µL of blood was drawn from the tip of the tails at the following time points: 0.5, 1, 2, 4, 6, 8, and 24 hours. The collected blood was immediately centrifuged at 3000 rpm for 10 minutes at 4 °C to separate plasma, which was subsequently flash frozen. At the 24 - hour time point, following the last blood sample collection, mice were sacrificed and the whole brains from each mouse were dissected and flash-frozen for subsequent analysis. […]\nCalibration Standards and Quality Control Samples\nStock solutions of standard (1 mM QST) and IS (250 µM D8-infigratinib) were prepared in acetonitrile. Working solutions for calibration curve standards and quality controls (QCs) were prepared by dilutions with a 40% methanol mixture aqueous solution. The IS precipitation solution (10 nM) was prepared from the IS stock solutions by dilution with methanol. Calibration standards and batch qualifying QCs were freshly spiked for every batch. For sample analysis in human and mouse matrices, calibration standards were prepared in bulk by spiking appropriate amounts of working solutions into blank human plasma, used as a surrogate matrix due to the instability of QST in mouse plasma. For sample analysis in neural stem cell media and cell […]", "note": "Where “and” joins values, the source holds several entries; their conditions need not be identical. Identical values can stand only once. Like-named read-outs stand apart in the source and are kept apart here.", "data": [{"compound": "Cn1cc(CNCC2CCN(c3ncc(C(=O)NO)cn3)CC2)c2ccccc21", "note": "[QST, quisinostat]", "values": [{"measurement": "[QST] in plasma", "setting": "IP 10 mg/kg single dose, 0.5 h, individual mice, 10 mg/kg", "result": "347 nmol/L and 1180 nmol/L and 730 nmol/L"}, {"measurement": "[QST] in plasma", "setting": "IP 10 mg/kg single dose, 1 h, individual mice, 10 mg/kg", "result": "268 nmol/L and 778 nmol/L and 432 nmol/L"}, {"measurement": "[QST] in plasma", "setting": "IP 10 mg/kg single dose, 2 h, individual mice, 10 mg/kg", "result": "70.8 nmol/L and 154 nmol/L and 237 nmol/L"}, {"measurement": "[QST] in plasma", "setting": "IP 10 mg/kg single dose, 4 h, individual mice, 10 mg/kg", "result": "22.3 nmol/L and 40.2 nmol/L and 126 nmol/L"}, {"measurement": "[QST] in plasma", "setting": "IP 10 mg/kg single dose, 6 h, individual mice, 10 mg/kg", "result": "12.5 nmol/L and 15.1 nmol/L and 47 nmol/L"}, {"measurement": "[QST] in plasma", "setting": "IP 10 mg/kg single dose, 8 h, individual mice, 10 mg/kg", "result": 8.68, "unit": "nmol/L"}, {"measurement": "[QST] in plasma", "setting": "IP 10 mg/kg single dose, 24 h, individual mice, 10 mg/kg", "result": "0.963 nmol/L and 0.894 nmol/L"}, {"measurement": "[QST] in plasma", "setting": "OG 10 mg/kg single dose, 0.5 h, individual mice", "result": "not detectable and 7.12 nmol/L"}, {"measurement": "[QST] in plasma", "setting": "OG 10 mg/kg single dose, 1 h, individual mice", "result": "not detectable and 4.92 nmol/L"}, {"measurement": "[QST] in plasma", "setting": "OG 10 mg/kg single dose, 2 h, individual mice", "result": "not detectable and 10.8 nmol/L"}, {"measurement": "[QST] in plasma", "setting": "OG 10 mg/kg single dose, 4 h, individual mice", "result": "not detectable and 44.7 nmol/L and 3.91 nmol/L"}, {"measurement": "[QST] in plasma", "setting": "OG 10 mg/kg single dose, 6 h, individual mice", "result": "not detectable and 5.16 nmol/L"}, {"measurement": "[QST] in plasma", "setting": "OG 10 mg/kg single dose, 8 h, individual mice", "result": "not detectable and 1.29 nmol/L and 4.22 nmol/L"}, {"measurement": "[QST] in plasma", "setting": "OG 10 mg/kg single dose, 24 h, individual mice", "result": "not detectable and 0.965 nmol/L"}, {"measurement": "[QST] in plasma", "setting": "SC 10 mg/kg single dose, 0.5 h, individual mice, 10 mg/kg", "result": "482 nmol/L and 355 nmol/L"}, {"measurement": "[QST] in plasma", "setting": "SC 10 mg/kg single dose, 1 h, individual mice, 10 mg/kg", "result": "617 nmol/L and 493 nmol/L"}, {"measurement": "[QST] in plasma", "setting": "SC 10 mg/kg single dose, 2 h, individual mice, 10 mg/kg", "result": "169 nmol/L and 281 nmol/L and 430 nmol/L"}, {"measurement": "[QST] in plasma", "setting": "SC 10 mg/kg single dose, 4 h, individual mice, 10 mg/kg", "result": "41.6 nmol/L and 61.2 nmol/L and 96.2 nmol/L"}, {"measurement": "[QST] in plasma", "setting": "SC 10 mg/kg single dose, 6 h, individual mice, 10 mg/kg", "result": "14.4 nmol/L and 21.7 nmol/L and 34.8 nmol/L"}, {"measurement": "[QST] in plasma", "setting": "SC 10 mg/kg single dose, 8 h, individual mice, 10 mg/kg", "result": "7.48 nmol/L and 13.4 nmol/L and 15.5 nmol/L"}, {"measurement": "[QST] in plasma", "setting": "SC 10 mg/kg single dose, 24 h, individual mice, 10 mg/kg", "result": "0.909 nmol/L and 0.187 nmol/L and 0.208 nmol/L"}, {"measurement": "concentration at 8 h", "setting": "male, Foxn1nu athymic nude, mouse, plasma, ip, 10 mg/kg, IP 10 mg/kg single dose, 8 h, individual mice, read-out: [QST] in plasma", "result": 15.9, "unit": "nM"}, {"measurement": "concentration at 24 h", "setting": "male, Foxn1nu athymic nude, mouse, plasma, ip, 10 mg/kg, IP 10 mg/kg single dose, 24 h, individual mice, read-out: [QST] in plasma", "result": 1.2, "unit": "nM"}, {"measurement": "concentration at 0.5 h", "setting": "male, Foxn1nu athymic nude, mouse, plasma, oral, 10 mg/kg, OG 10 mg/kg single dose, 0.5 h, individual mice, read-out: [QST] in plasma", "result": 8.17, "unit": "nM"}, {"measurement": "concentration at 1 h", "setting": "male, Foxn1nu athymic nude, mouse, plasma, oral, 10 mg/kg, OG 10 mg/kg single dose, 1 h, individual mice, read-out: [QST] in plasma", "result": 7.64, "unit": "nM"}, {"measurement": "concentration at 2 h", "setting": "male, Foxn1nu athymic nude, mouse, plasma, oral, 10 mg/kg, OG 10 mg/kg single dose, 2 h, individual mice, read-out: [QST] in plasma", "result": 8.86, "unit": "nM"}, {"measurement": "concentration at 6 h", "setting": "male, Foxn1nu athymic nude, mouse, plasma, oral, 10 mg/kg, OG 10 mg/kg single dose, 6 h, individual mice, read-out: [QST] in plasma", "result": 4.91, "unit": "nM"}, {"measurement": "concentration at 24 h", "setting": "male, Foxn1nu athymic nude, mouse, plasma, oral, 10 mg/kg, OG 10 mg/kg single dose, 24 h, individual mice, read-out: [QST] in plasma", "result": 0.81, "unit": "nM"}, {"measurement": "concentration at 0.5 h", "setting": "male, Foxn1nu athymic nude, mouse, plasma, sc, 10 mg/kg, SC 10 mg/kg single dose, 0.5 h, individual mice, read-out: [QST] in plasma", "result": 300, "unit": "nM"}, {"measurement": "concentration at 1 h", "setting": "male, Foxn1nu athymic nude, mouse, plasma, sc, 10 mg/kg, SC 10 mg/kg single dose, 1 h, individual mice, read-out: [QST] in plasma", "result": 418, "unit": "nM"}, {"measurement": "concentration at 8 h", "setting": "male, Foxn1nu athymic nude, mouse, plasma, IP 10 mg/kg single dose, 8 h, individual mice, read-out: [QST] in plasma", "result": 25.7, "unit": "nM"}, {"measurement": "AUC(0-t)", "setting": "male, mouse, plasma, oral, OG", "result": 0.106, "unit": "µM·h"}, {"measurement": "AUC(0-t)", "setting": "male, mouse, plasma, IP", "result": 1.2, "unit": "µM·h"}, {"measurement": "AUC(0-t)", "setting": "male, mouse, plasma, SC", "result": 1.19, "unit": "µM·h"}]}]}
